Source: PubChem BioAssay (NCI)
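Following 48 hours of exposure in 96-well plates, responses at five concentrations were used to interpolate endpoints linearly. Here, GI50 denotes the concentration required for 50% inhibition of growth. Definition used: TGI = concentration required for complete inhibition of growth.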

Tests used:
Assay in all cases: NCI-60 cell line screen, 48 h
[1] = tested on: HCC-2998 colon
[2] = tested on: MDA-MB-435
[3] = tested on: NCI-H522 lung
[4] = tested on: SF-539 CNS
[5] = tested on: T-47D breast
[6] = tested on: MDA-N
[7] = tested on: DLD-1 colon
[8] = tested on: DMS 114 small cell lung
[9] = tested on: DMS 273 small cell lung
[10] = tested on: KM20L2 colon
[11] = tested on: LXFL 529 NSCLC
[12] = tested on: M19-MEL melanoma
[13] = tested on: SNB-78 CNS
[14] = tested on: XF 498 CNS
[15] = tested on: RXF-631 renal

## O=c1ccc2nc(-c3ccccc3)nn(-c3ccccn3)c-2c1
[1]
  GI50: 20.9 µM
  TGI: 44.5 µM
[2]
  GI50: 15.4 µM
  TGI: 33.9 µM
[3]
  GI50: 1.51 µM
  TGI: 2.97 µM
[4]
  GI50: 16.2 µM
  TGI: 30.8 µM
[5]
  GI50: 2.03 µM
  TGI: 6.79 µM

## CC(C)c1cc(CN(C)C)c(O)c(C(C)(C)C)c1
[1]
  TGI: 29.6 µM
[2]
  TGI: > 100 µM
[6]
  TGI: 73.3 µM
[3]
  TGI: 38.1 µM
[5]
  TGI: 58.1 µM

## COC(=O)Nc1nc2cc(OC)c(OC)cc2c(=O)[nH]1
[1]
  TGI: > 100 µM
[6]
  TGI: 7.99 µM
[3]
  TGI: 6.51 µM
[4]
  TGI: > 100 µM
[5]
  TGI: > 100 µM

## N=C(c1ccc2ccccc2c1)c1ccccc1Cc1ccccc1
[1]
  TGI: > 100 µM
[2]
  TGI: 80.7 µM
[6]
  TGI: > 100 µM
[4]
  TGI: > 100 µM
[5]
  TGI: 55.7 µM

## NC(=O)C(N)=O
[7]
  TGI: > 100 µM
[8]
  TGI: > 100 µM
[9]
  TGI: > 100 µM
[1]
  TGI: > 100 µM
[10]
  TGI: > 100 µM
[11]
  TGI: > 100 µM
[12]
  TGI: > 100 µM
[3]
  TGI: > 100 µM
[4]
  TGI: > 100 µM
[13]
  TGI: > 100 µM
[14]
  TGI: > 100 µM

## Nc1nc(N)c2c(n1)NC(=O)c1c(c3ccccc3n1Cc1ccc(Cl)cc1)C2
[1]
  TGI: 34.4 µM
[2]
  TGI: 91.1 µM
[6]
  TGI: 34.5 µM
[4]
  TGI: 44.8 µM
[5]
  TGI: 43.9 µM

## CC(C)(C)N1C(C(=O)c2ccccc2)C1c1ccccc1 (stereo not drawn)
[7]
  TGI: > 100 µM
[9]
  TGI: > 100 µM
[1]
  TGI: > 100 µM
[11]
  TGI: > 100 µM
[12]
  TGI: > 100 µM
[3]
  TGI: > 100 µM
[15]
  TGI: > 100 µM
[4]
  TGI: > 100 µM
[13]
  TGI: > 100 µM

## O=C(CSc1nc2ccccc2s1)c1sc2sc3ccccc3[n+]2c1[O-]
[2]
  TGI: > 100 µM
[6]
  TGI: > 100 µM
[3]
  TGI: > 100 µM
[4]
  TGI: > 100 µM
[5]
  TGI: > 100 µM

## O=C1c2ccccc2C(=O)c2c(Nc3ccc4c5c(cccc35)C(=O)c3ccccc3-4)cccc21
[1]
  TGI: > 100 µM
[2]
  TGI: > 100 µM
[6]
  TGI: > 100 µM
[3]
  TGI: > 100 µM
[5]
  TGI: > 100 µM

## Nc1c2c(=O)[nH]c(=O)c2c(N)c2c(=O)c3ccccc3c(=O)c12
[1]
  TGI: > 63.3 µM
[2]
  TGI: 2.46 µM
[6]
  TGI: 0.448 µM
[3]
  TGI: 13.5 µM
[4]
  TGI: 4.52 µM
[5]
  TGI: > 49.6 µM

## CC(C)(C)OC(=O)c1cnc(Cl)cn1
[2]
  TGI: > 100 µM
[3]
  TGI: 2.78 µM
[4]
  TGI: > 100 µM
[5]
  TGI: > 100 µM

## C=CC[N+]12CN3CN(CN(C3)C1)C2
[1]
  TGI: 55.8 µM
[2]
  TGI: 37.4 µM
[6]
  TGI: 35.5 µM
[3]
  TGI: 34.9 µM
[4]
  TGI: 40.6 µM
[5]
  TGI: 76.5 µM

## C#CCOc1c(C(=O)OCC)c(=O)n(C)c2ccccc12
[7]
  TGI: > 100 µM
[8]
  TGI: > 100 µM
[10]
  TGI: > 100 µM
[11]
  TGI: > 100 µM
[12]
  TGI: > 100 µM
[3]
  TGI: > 100 µM
[15]
  TGI: > 100 µM
[4]
  TGI: > 100 µM
[13]
  TGI: > 100 µM
[14]
  TGI: > 100 µM

## COc1ccc(C[C@H](N)C(=O)NC2C(CO)OC(n3cnc4c(N(C)C)ncnc43)C2O)cc1 (stereo partly drawn)
[8]
  TGI: 0.604 µM
[9]
  TGI: 1.51 µM
[1]
  TGI: 1.01 µM
[11]
  TGI: 0.305 µM
[12]
  TGI: 1.54 µM
[13]
  TGI: 0.758 µM
[14]
  TGI: 0.166 µM
